{"source": "patent US20080227829A1", "about": "“Neurogenic compounds” (priority 2007, published 2008)", "key": {"[1]": {"test_system": "mice", "assay": "Object recognition, visual paired comparison task (VPC)", "assay_type": "in vivo", "procedure": "Each mouse receiving either apigenin 25 mg/kg or Tween 80:0.9% NaCl (control) solutions was administered an i.p. injection of either drug or control for 7 days, after which they were trained and tested on visual paired comparison task (VPC) behavioral assay. The paradigm consisted of habituation to the experimental room for two hours prior to the experiment on Days 1 and 2. After habituation on Day 1, mice were given a five minute exposure to the testing chamber, followed by a thirty second exploration of two identical objects (familiarization training). Twenty-four hours after the familiarization training, mice were once again re-habituated to the room and testing chamber for two hours and one minute, respectively. After re-habituation mice were placed back into the testing chamber and allowed to explore a familiar and novel object for five minutes. Object exploration times were measured for both familiar and novel objects on Days 1 and 2. Both objects were identical, but the “novel” object was in a different location."}, "[2]": {"test_system": "dentate gyrus", "assay": "10-day oral (food) and i.p. study, BrdU/DAB quantification of dividing cells", "assay_type": "in vivo, mice", "conditions": "10 days; i.p. injection (apigenin 25 mg/kg, epicatechin 20 mg/kg) or food 250 ppm and 500 ppm; vs controls", "procedure": "A 10-day food study was conducted in which the effects of oral administration of apigenin were compared with apigenin effects upon injection. Food pellets containing epicatechin were tested alongside apigenin. Animals were fed food containing apigenin, epicatechin or control pellets in two doses: 250 ppm and 500 ppm. Aliquots of apigenin and epicatechin were dissolved in [10:90] Tween 80: 0.9% NaCl. Aliquots of Tween 80: 0.9% NaCl were used as controls. Forty mice (age seven weeks) were divided into three test injection groups (n=five per group) and five test food groups (n=five per group) and received: Test injections were administered i.p. for ten days total. Test food was distributed on Day 1 and mice were allowed to eat freely for the duration of the ten days. Daily i.p. injections of BrdU [10 mg/ml] were administered to all animals the first eight days of this study at a dose of 50 mg/kg. At the end of ten days, all mice were perfused using 4% paraformaldehyde and their brain tissue was extracted. Brain tissue was sectioned and stained for BrdU/DAB quantification for dividing cells."}, "[3]": {"test_system": "NeuroD", "assay": "NeuroD luciferase reporter assay", "assay_type": "cell-based", "conditions": "5 mM apigenin; cells first allowed to proliferate with FGF2 for twenty-four hours; 2-day treatment", "procedure": "Adult neural progenitor cells were plated in N2 media containing FGF2 for twenty-four hours. See Bottenstein et al., Growth of a rat neuroblastoma cell line in serum-free supplemented medium, Proc. Natl. Acad. Sci. USA 76(1) (1979) (describing components of N2 media).\nThe cells were replaced with fresh N2 media (without FGF2) and apigenin was added. In all experiments, 5 mM apigenin dissolved in DMSO was used. As a positive control for neuronal differentiation, N2 media containing retinoic acid (RA) and forskolin (FSK) was used. As a negative control, N2 media and the equivalent amount of DMSO or N2 was used. Either a NeuroD luciferase reporter assay (purchased from Promega, cat. No. e-1980, Dual-Luciferase Reporter 1000 Assay System) was performed two days later or immunohistochemistry was performed four days later. […]"}, "[4]": {"test_system": "Adult neural progenitor cells", "assay": "Immunohistochemistry with lineage-specific markers (Tuj 1, GFAP, RIP)", "assay_type": "cell-based", "procedure": "Adult neural progenitor cells were plated in N2 media containing FGF2 for twenty-four hours. See Bottenstein et al., Growth of a rat neuroblastoma cell line in serum-free supplemented medium, Proc. Natl. Acad. Sci. USA 76(1) (1979) (describing components of N2 media). The cells were replaced with fresh N2 media (without FGF2) and apigenin was added. In all experiments, 5 mM apigenin dissolved in DMSO was used. As a positive control for neuronal differentiation, N2 media containing retinoic acid (RA) and forskolin (FSK) was used. As a negative control, N2 media and the equivalent amount of DMSO or N2 was used. Either a NeuroD luciferase reporter assay (purchased from Promega, cat. No. e-1980, Dual-Luciferase Reporter 1000 Assay System) was performed two days later or immunohistochemistry was performed four days later. The immunohistochemical analysis of the apigenin-treated and control cells was performed by fixing and staining the cells after four days with lineage-specific markers (Tuj 1 for neurons, GFAP for astrocytes, and RIP for oligodendrocytes). Tuj 1 is a neuron-specific class III beta-tubulin used as a marker for new neurons. GFAP (glial fibrillary acidic protein), an intermediate-filament protein which is expressed almost exclusively in the astrocytes of the central nervous system, is used as a marker for new astrocytes. RIP is a monoclonal antibody used as an early marker of developing oligodendrocytes."}, "[5]": {"conditions": "5 mM apigenin, cells first proliferating in FGF2, four days"}}, "note": "Entries after “also recorded” stand apart in the source; their conditions may differ.", "data": [{"smiles": "O=c1cc(-c2ccc(O)cc2)oc2cc(O)cc(O)c12", "note": "[apigenin]", "values": [{"measurement": "difference between injection groups during novel testing", "setting": "[1]; 25 mg/kg i.p. for 7 days vs Tween 80:0.9% NaCl control", "result": "No significant differences"}, {"measurement": "preference for the novel object (object exploration time)", "setting": "[1]; 25 mg/kg i.p. for 7 days, T-test t=0.0008", "result": "significant preference for the novel object"}, {"measurement": "number of dividing cells (BrdU+) in the dentate gyrus", "setting": "[2]", "result": "significant increase in the number of dividing cells; also recorded: increased BrdU labeling"}, {"measurement": "NeuroD-activation (luciferase) as compared to activation by RA+FSK", "setting": "[3]", "result": "two-fold higher"}, {"measurement": "astrocyte (GFAP) differentiation", "setting": "[4]; [5]", "result": "1-5%"}, {"measurement": "oligodendrocyte (RIP) differentiation", "setting": "[4]; [5]", "result": "1-5%"}, {"measurement": "percentage of Tuj 1-positive neurons", "setting": "[4]; 5 mM apigenin, directly plated into N2 media without FGF2, four days", "result": "5 to 30", "unit": "%"}, {"measurement": "difference in Tuj 1 or Map2ab-positive neurons with or without FGF-2 pre-treatment", "setting": "[4]; repeated experiments", "result": "no significant difference"}]}]}
